Literature values, collected in patent US11426447B2, “Neuregulin for the treatment of tumors of the nervous system” (LEIBNIZ-INSTITUT FUR …, priority 2016, dated 2022).

Tested on: schwannoma
Settings: cited from earlier work

## bevacizumab
NF2 patients (Plotkin et al., 2009)
  efficacy for schwannoma growth control and hearing improvement: limited efficacy
human, in vivo
  side effects: severe side effects
